Source: patent US20250108038A1 (priority 2023, published 2025)
Where two headings read alike, the source gives them in different places.

Legend:
[1] = tested on: HEK293 uptake transporter overexpressing and control cells; assay: Resazurin-based cytotoxicity assay
Method: The cells were plated on 96-well plates. Prior to the experiment the medium was removed, and cells were rinsed with 2×100 μL of the respective buffer for uptake transporter transfected and control cell lines.

[2] = assay type: physicochemical
Method: All conditions and stock preparation procedures were identical to the conditions applied in the transporter assays (Table 74, Table 75 and Table 76). […] A follow-up assay was carried out at 7 concentrations in order to correct the nominal concentrations for the IC50 calculations (Table 78). Where NSB was observed (>20% loss) the assay concentrations were corrected according to the result of the respective NSB assay.
All conditions and stock preparation procedures were identical to the conditions applied in the transporter assays.
Samples (1.5×C0 or Total) were immediately taken after mixing to determine the total initial concentrations. The assay mixes were pre-incubated for 15 minutes at 37° C. and at 32° C. in case of BCRP and MDR1. After the pre-incubation step the assay mixes were 1.5-times diluted with (pre-warmed) transport buffer reaching the final nominal concentrations of the compounds in the VT assay and then were further incubated at 37° C. or 32° C. for BCRP and MDR1 and sampled in the end of incubation (timc).
The aqueous buffer was mixed, and samples (C0 or Total) were immediately taken for determining the total initial concentrations. The helper plate was pre-warmed for 15 minutes at 37° C. The pre-warmed aliquots of the aqueous buffers with the test articles (50 μL) were transferred from the helper plate into the wells of another 96-well plate (assay plate) and incubated for 30 minutes (pre-incubation) then removed from the wells. Thereafter the same wells of the assay plate were dosed again with other aliquots of the aqueous buffers with the test articles and were further incubated in the assay plate at 37° C. and finally sampled (tinc).

[3] = MATE1 assay, 5.00 μM, incubation 30 + 3 min
[4] = MATE1 assay, 10.00 μM, incubation 30 + 3 min
[5] = MATE1 assay, 20.00 μM, incubation 30 + 3 min
[6] = MATE1 assay, 30.00 μM, incubation 30 + 3 min
[7] = MATE2-K assay, 5.00 μM, incubation 30 + 1 min
[8] = MATE2-K assay, 10.00 μM, incubation 30 + 1 min
[9] = MATE2-K assay, 20.00 μM, incubation 30 + 1 min
[10] = MATE2-K assay, 30.00 μM, incubation 30 + 1 min
[11] = OAT1 assay, 5.00 μM, incubation 30 + 2 min
[12] = OAT1 assay, 10.00 μM, incubation 30 + 2 min
[13] = OAT1 assay, 20.00 μM, incubation 30 + 2 min
[14] = OAT1 assay, 30.00 μM, incubation 30 + 2 min
[15] = OAT3 assay, 5.00 μM, incubation 30 + 1 min
[16] = OAT3 assay, 10.00 μM, incubation 30 + 1 min
[17] = OAT3 assay, 20.00 μM, incubation 30 + 1 min
[18] = OAT3 assay, 30.00 μM, incubation 30 + 1 min
[19] = OATP1B1 assay, 5.00 μM, incubation 30 + 3 min
[20] = OATP1B1 assay, 10.00 μM, incubation 30 + 3 min
[21] = OATP1B1 assay, 20.00 μM, incubation 30 + 3 min
[22] = OATP1B1 assay, 30.00 μM, incubation 30 + 3 min
[23] = OATP1B3 assay, 5.00 μM, incubation 30 + 2 min
[24] = OATP1B3 assay, 10.00 μM, incubation 30 + 2 min
[25] = OATP1B3 assay, 20.00 μM, incubation 30 + 2 min
[26] = OATP1B3 assay, 30.00 μM, incubation 30 + 2 min
[27] = OCT1 assay, 5.00 μM, incubation 30 + 3 min
[28] = OCT1 assay, 10.00 μM, incubation 30 + 3 min
[29] = OCT1 assay, 20.00 μM, incubation 30 + 3 min
[30] = OCT1 assay, 30.00 μM, incubation 30 + 3 min
[31] = OCT2 assay, 5.00 μM, incubation 30 + 1 min
[32] = OCT2 assay, 10.00 μM, incubation 30 + 1 min
[33] = OCT2 assay, 20.00 μM, incubation 30 + 1 min
[34] = OCT2 assay, 30.00 μM, incubation 30 + 1 min
[35] = HBSS (pH 7.4) uptake buffer, 37° C., nominal 3.00 μM
[36] = HBSS (pH 7.4) uptake buffer, 37° C., nominal 30.00 μM
[37] = KH (pH 8.0) uptake buffer, 37° C., nominal 3.00 μM
[38] = KH (pH 8.0) uptake buffer, 37° C., nominal 30.00 μM
[39] = Transport buffer with sucrose (pH 7.4), BCRP and MDR1 VT, 32° C., nominal C0 5.00 μM
[40] = Transport buffer with sucrose (pH 7.4), BCRP and MDR1 VT, 32° C., nominal C0 50.00 μM

SMILES: OC1(c2ccc(Cl)cc2)c2ccccc2C2=NCCN21 (centres unmarked) [Compound A, 5-(4-chlorophenyl)-2,3-dihydroimidazo[1,2-b]isoindol-5-ol, reference compound]
- Cell viability (cytotoxic effect) ([1]; HEK293-MATE1-LV, -MATE2-K-LV, -OAT1-LV, -OAT3-LV, -OATP1B1-LV, -OATP1B3-LV, -OCT1-LV, -OCT2-LV and control cells): did not reduce the cell viability
- Relative cell viability, control cells [1, 3]: 99.21 ± 1.16 % of control
- Relative cell viability, transfected cells [1, 3]: 100.44 ± 1.23 % of control
- Relative cell viability, control cells [1, 4]: 99.15 ± 1.14 % of control
- Relative cell viability, transfected cells [1, 4]: 100.94 ± 1.13 % of control
- Relative cell viability, control cells [1, 5]: 99.30 ± 1.01 % of control
- Relative cell viability, transfected cells [1, 5]: 101.82 ± 1.13 % of control
- Relative cell viability, control cells [1, 6]: 99.32 ± 1.20 % of control
- Relative cell viability, transfected cells [1, 6]: 100.38 ± 1.18 % of control
- Relative cell viability, control cells [1, 7]: 98.30 ± 0.72 % of control
- Relative cell viability, transfected cells [1, 7]: 100.17 ± 1.24 % of control
- Relative cell viability, control cells [1, 8]: 101.55 ± 0.74 % of control
- Relative cell viability, transfected cells [1, 8]: 99.35 ± 0.57 % of control
- Relative cell viability, control cells [1, 9]: 99.74 ± 0.77 % of control
- Relative cell viability, transfected cells [1, 9]: 98.93 ± 1.00 % of control
- Relative cell viability, control cells [1, 10]: 99.57 ± 0.77 % of control
- Relative cell viability, transfected cells [1, 10]: 95.00 ± 1.36 % of control
- Relative cell viability, control cells [1, 11]: 99.60 ± 2.60 % of control
- Relative cell viability, transfected cells [1, 11]: 101.06 ± 0.56 % of control
- Relative cell viability, control cells [1, 12]: 102.26 ± 1.66 % of control
- Relative cell viability, transfected cells [1, 12]: 100.28 ± 0.26 % of control
- Relative cell viability, control cells [1, 13]: 103.10 ± 2.01 % of control
- Relative cell viability, transfected cells [1, 13]: 98.34 ± 0.33 % of control
- Relative cell viability, control cells [1, 14]: 102.66 ± 2.43 % of control
- Relative cell viability, transfected cells [1, 14]: 93.28 ± 2.26 % of control
- Relative cell viability, control cells [1, 15]: 98.41 ± 1.36 % of control
- Relative cell viability, transfected cells [1, 15]: 97.17 ± 0.40 % of control
- Relative cell viability, control cells [1, 16]: 96.14 ± 2.42 % of control
- Relative cell viability, transfected cells [1, 16]: 98.73 ± 0.68 % of control
- Relative cell viability, control cells [1, 17]: 95.85 ± 2.05 % of control
- Relative cell viability, transfected cells [1, 17]: 97.97 ± 0.89 % of control
- Relative cell viability, control cells [1, 18]: 98.11 ± 1.29 % of control
- Relative cell viability, transfected cells [1, 18]: 99.16 ± 0.66 % of control
- Relative cell viability, control cells [1, 19]: 95.83 ± 0.85 % of control
- Relative cell viability, transfected cells [1, 19]: 101.07 ± 0.61 % of control
- Relative cell viability, control cells [1, 20]: 93.21 ± 2.18 % of control
- Relative cell viability, transfected cells [1, 20]: 102.28 ± 0.69 % of control
- Relative cell viability, control cells [1, 21]: 96.00 ± 0.81 % of control
- Relative cell viability, transfected cells [1, 21]: 99.79 ± 0.88 % of control
- Relative cell viability, control cells [1, 22]: 96.60 ± 2.23 % of control
- Relative cell viability, transfected cells [1, 22]: 98.92 ± 1.07 % of control
- Relative cell viability, control cells [1, 23]: 96.08 ± 0.72 % of control
- Relative cell viability, transfected cells [1, 23]: 99.30 ± 0.80 % of control
- Relative cell viability, control cells [1, 24]: 93.50 ± 0.99 % of control
- Relative cell viability, transfected cells [1, 24]: 99.16 ± 1.10 % of control
- Relative cell viability, control cells [1, 25]: 98.24 ± 0.33 % of control
- Relative cell viability, transfected cells [1, 25]: 99.23 ± 0.43 % of control
- Relative cell viability, control cells [1, 26]: 100.55 ± 0.31 % of control
- Relative cell viability, transfected cells [1, 26]: 99.58 ± 0.58 % of control
- Relative cell viability, control cells [1, 27]: 95.85 ± 5.15 % of control
- Relative cell viability, transfected cells [1, 27]: 105.13 ± 8.07 % of control
- Relative cell viability, control cells [1, 28]: 99.88 ± 5.10 % of control
- Relative cell viability, transfected cells [1, 28]: 106.01 ± 8.03 % of control
- Relative cell viability, control cells [1, 29]: 98.58 ± 5.65 % of control
- Relative cell viability, transfected cells [1, 29]: 105.82 ± 8.04 % of control
- Relative cell viability, control cells [1, 30]: 102.27 ± 5.38 % of control
- Relative cell viability, transfected cells [1, 30]: 109.22 ± 8.33 % of control
- Relative cell viability, control cells [1, 31]: 95.32 ± 3.75 % of control
- Relative cell viability, transfected cells [1, 31]: 96.41 ± 1.41 % of control
- Relative cell viability, control cells [1, 32]: 93.96 ± 4.78 % of control
- Relative cell viability, transfected cells [1, 32]: 97.59 ± 1.08 % of control
- Relative cell viability, control cells [1, 33]: 96.81 ± 3.07 % of control
- Relative cell viability, transfected cells [1, 33]: 98.80 ± 0.86 % of control
- Relative cell viability, control cells [1, 34]: 96.68 ± 2.77 % of control
- Relative cell viability, transfected cells [1, 34]: 98.11 ± 0.97 % of control
- decrease of the relative cell viability compared to solvent (DMSO) ([1]; all uptake transporter overexpressing and control cells): less than 20%
- Non-specific binding (NSB) ([2]; BCRP, BSEP and MDR1 VT inhibition assay setup): did not show any NSB
- Non-specific binding (NSB) ([2]; HBSS (pH 7.4) and KH (pH 8.0) uptake assay buffers): did not show any NSB
- Concentration after incubation [2, 35]: 1.85 ± 0.13 µM
- Loss of Compound A during the NSB assay [2, 35]: 14%
- Measured dosing concentrations [2, 35]: 2.16 ± 0.05 µM
- Concentration after incubation [2, 36]: 17.66 ± 0.35 µM
- Loss of Compound A during the NSB assay [2, 36]: 15%
- Measured dosing concentrations [2, 36]: 20.71 ± 0.67 µM
- Concentration after incubation [2, 37]: 1.86 ± 0.06 µM
- Loss of Compound A during the NSB assay [2, 37]: 20%
- Measured dosing concentrations [2, 37]: 2.31 ± 0.11 µM
- Concentration after incubation [2, 38]: 18.15 ± 0.42 µM
- Loss of Compound A during the NSB assay [2, 38]: 18%
- Measured dosing concentrations [2, 38]: 22.13 ± 0.61 µM
- Concentration after incubation (tinc) [2, 39]: 6.27 ± 0.69 µM
- Loss of Compound A during the NSB assay [2, 39]: 3%
- Measured dosing concentrations ([…] C0) [2, 39]: 9.65 ± 1.52 µM
- Concentration after incubation (tinc) [2, 40]: 55.92 ± 2.44 µM
- Loss of Compound A during the NSB assay [2, 40]: −2%
- Measured dosing concentrations ([…] C0) [2, 40]: 82.20 ± 3.76 µM
